Assay type in all cases: in vivo, NMRI:nu/nu mice
The subject of data set [1] is human breast carcinoma MT-3. The experiment in a line: Tumor growth inhibition (RTV, T/C) in the MT-3 xenograft mouse tumor model. The note with it: for Tumor volume cm^3/d31: day 31; for Tumor volume cm^3/d27: day 27.
Data set [2] has as its system human prostate carcinoma PC3. The experiment in a line: Tumor growth inhibition (RTV, T/C) in the PC3 xenograft mouse tumor model. The note with it: Table 20; conjugates 1 × 75 mg/kg d6, Docetaxel 5 mg/kg d6-10; i.v. As to the method: Each measurement was carried out with a group of 8 mice. The conjugates CDc1, CDc4 and CDc5 were administered once at a dosage of 75 mg/kg body weight on day 6. Taxotere® was administered 5 times at a dosage of 5 mg/kg body weight at days 6 to 10. Median values are given.
(§1) Adult male and female immunodeficient mice NMRI:nu/nu mice (TACONIC Europe, Lille Skensved, Denmark) were used throughout the study.
(§2) The animals were randomly assigned to various experimental groups with 6 to 8 mice each. At treatment initiation the ears of the animals were marked and each cage was labeled with the cage number, study number and animal number per cage.
(§3) The tumor lines A549, PC-3 and MT3 are lines which are commonly used for testing new anticancer drugs or novel therapeutic therapies. A549, PC-3 and MT3 xenografts are growing relatively fast and uniform.
(§4) Tumor cells were thawed and grown under in vitro conditions. […]
(§5) Tumor growth inhibition was used as therapeutic parameter. Additionally, body weight change was determined as signs for toxicity (particularly, potential hematological or gastrointestinal side effects).
(§6) Tumor diameters were measured twice weekly with a caliper. Tumor volumes were calculated according to V=(length×(width)^2)/2. […] At each measurement day the median and mean tumor volumes per group and also the treated to control (T/C) values in percent were calculated. […]

The subject of data set [3] is human lung carcinoma A549. The experiment in a line: Tumor growth inhibition (RTV, T/C) in the A549 xenograft mouse tumor model. The note with it: Table 21, conjugates 1 × 75 mg/kg d8, Docetaxel 5 mg/kg d8-12, i.v. The protocol:
Each measurement was carried out with a group of 8 mice. The conjugates CDc1, CDc4 and CDc5 were administered once at a dosage of 75 mg/kg body weight on day 8. Taxotere® was administered 5 times at a dosage of 5 mg/kg body weight at days 8 to 12. Median values are given.
as §1, §2, §3, §4, §5, §6

Data set [4] can be described thus: Body weight change as sign of toxicity in tumor-bearing mice (docetaxel/paclitaxel studies; MT-3, PC3, A549 models). As to the method:
as §5
Individual body weights of mice were determined twice weekly and mean body weight per group was related to the initial value in percent (body weight change, BWC), see tables in appendix.
Descriptive statistics was performed on the data of body weight and tumor volume. […] Statistical evaluation was performed with the U-test of Mann and Whitney with a significance level of p≦0.05, using the Windows program […] 6.
Tables 18 to 24 summarize the results for the tested Docetaxel conjugates and the reference compound Taxotere®. […] The loss of body weight is known to be an indicator of gastro-intestinal and hepatotoxicity of the tested compound.
The tables show, inter alia, i) the tested compounds, ii) the tumor volume in mice at the day the control group was sacrificed (in cm^3), iii) the lowest value of the relative tumor volume vs. the relative tumor volume of the control group (RTV T/C) together with the day, when this optimum was reached, iv) the maximum body weight loss in mice together with the day, when this minimum was reached. The loss of body weight is known to be an indicator of gastro-intestinal and hepatotoxicity of the tested compound.

The test system of data set [5] is human pancreas carcinoma ASPC-1. Description: Tumor growth inhibition (RTV, T/C) in the ASPC-1 s.c. xenotransplantation model. The note with it: Table 27, ASPC-1; day 27; 60 mg/kg/inj., treatment d 7, 15, 21.
Source text: At treatment initiation the ears of the animals were marked and each cage was labeled with the cage number, study number and animal number per cage.
The human pancreas carcinoma ASPC-1 was used as s.c. xenotransplantation model in immunodeficient female NMRI:nu/nu mice.
They were thawed, expanded in vitro and transplanted as cell suspension subcutaneously (s.c.) in female NMRI:nu/nu mice. The tumor line ASPC-1 is used for testing new anticancer drugs or novel therapeutic strategies. It was therefore selected for this study.
For experimental use 10^7 tumor cells/mouse from the in vitro passage were transplanted s.c. into the flank of each of 10 mice/group at day 0.
At palpable tumor size (30-100 mm^3) treatment started. The application volume was 0.2 ml/20 g mouse body weight. The test compounds, the vehicle controls and the reference compounds were all given intravenously (i.v.).
as §5
Tumor diameters were measured twice weekly with a caliper. Tumor volumes were calculated according to V=(length×(width)^2)/2. For calculation of the relative tumor volume (RTV) the tumor volumes at each measurement day were related to the day of first treatment. […]

A short description of data set [6]: Body weight change as sign of toxicity in mice bearing ASPC-1 xenografts (gemcitabine study). The note with it: Table 27, ASPC-1; 60 mg/kg/inj., treatment d 7, 15, 21; day in parentheses. As to the method:
as §5
Individual body weights of mice were determined twice weekly and mean body weight per group was related to the initial value in percent (body weight change, BWC).
Descriptive statistics were performed on the data of body weight and tumor volume. […] Statistical evaluation was performed with the U-test of Mann and Whitney with a significance level of p≦0.05, using the Windows program […] 6.

Setting [7] is: Table 23, conjugates 1 × 75 mg/kg d7, Docetaxel 5 mg/kg d7-11, i.v.
Setting [8] is: Table 25, MT-3, 12.5 mg/kg/inj. d 7-9, 10 mg/kg/inj. d 10-11.

Marks after values point to notes of the source that are not given here.

Turning to `CC(=O)O[C@@]12CO[C@@H]1C[C@H](O)[C@@]1(C)C(=O)[C@H](O)C3=C(C)[C@@H](OC(=O)[C@H](O)[C@@H](NC(=O)OC(C)(C)C)c4ccccc4)C[C@@](O)([C@@H](OC(=O)c4ccccc4)[C@H]21)C3(C)C` [Docetaxel, docetaxel], the “Tumor volume cm^3/d31” value in data set [1] (Table 18, conjugates 1 × 100 mg/kg d7, Docetaxel 10 mg/kg d7, 9, 11, i.v.) is reported as 0.18 +/− 0.10 cm^3. For the same molecule, the “RTV T/C (%) Optimum (at day)” value in data set [1] (Table 18, lowest RTV vs control, conjugates 1 × 100 mg/kg d7, Docetaxel 10 mg/kg d7, 9, 11, i.v.) was determined as 10.7%; in data set [1] (Table 19, conjugates 1 × 75 mg/kg d11, Docetaxel 5 mg/kg d11-15, i.v.), 54.0%; in data set [1] (Table 22, conjugates 1 × 75 mg/kg d11, Docetaxel 5 mg/kg d11-15, i.v.), 31.8%; in data set [1] (setting [7]), 43.0%; in data set [1] (Table 24, MT-3, 5 mg/kg/inj., treatment d 8-12, day of optimum in parentheses below) it was 23.1%; in data set [2], 2.6%. The “RTV T/C (%) Optimum (at day)” value in data set [3] was found to be 32.3%. For the same molecule, the “Tumor volume cm^3/d26” value in data set [1] (Table 19, day 26, conjugates 1 × 75 mg/kg d11, Docetaxel 5 mg/kg d11-15, i.v.) is recorded as 0.815 +/− 0.383* cm^3. The “Tumor volume cm3/d25” value in data set [1] (Table 22, day 25, conjugates 1 × 75 mg/kg d11, Docetaxel 5 mg/kg d11-15, i.v.) is 0.517 +/− 0.202* cm3. The “Tumor volume cm^3/d27” value is reported as 0.873 +/− 0.390* cm^3 in data set [1] (setting [7]) and 0.542 +/− 0.353* cm^3 in data set [1] (Table 24, MT-3, 5 mg/kg/inj., treatment d 8-12). In addition, the “Tumor volume cm^3/d42” value in data set [3] (day 42) is recorded as 0.334 +/− 0.207* cm^3. Moreover, the “Toxic deaths (at day)” value in data set [4] (Table 18, MT-3 model, conjugates 1 × 100 mg/kg d7, Docetaxel 10 mg/kg d7, 9, 11, i.v., 8 mice per group) came out at 4. Moreover, in data set [4] (Table 23, MT-3 model, conjugates 1 × 75 mg/kg d7, Docetaxel 5 mg/kg d7-11, i.v.), the “Toxic death (at day)” value is 0. Also, the “BWC [%] (at day)” value in data set [4] (mouse, in vivo, 5 mg/kg) was −11%.
For `Nc1ccn([C@@H]2O[C@H](CO)[C@@H](O)C2(F)F)c(=O)n1` [Gemcitabine, gemcitabine], the “d27 [head truncated; T/C in percent]” value in data set [5] is 53.3%. Also, the “[%] (at day) [head truncated; BWC]” value in data set [6] is −2.4 (9) %.
As for `CC(=O)O[C@H]1C(=O)[C@@]2(C)[C@H]([C@H](OC(=O)c3ccccc3)[C@]3(O)C[C@H](OC(=O)[C@H](O)[C@@H](NC(=O)c4ccccc4)c4ccccc4)C(C)=C1C3(C)C)[C@]1(OC(C)=O)CO[C@@H]1C[C@@H]2O` [Paclitaxel, paclitaxel], the “RTV T/C (%) Optimum (at day)” value in data set [1] (setting [8]) was 21.5%. The “Tumor volume cm^3/d31” value in data set [1] (setting [8]) is reported as 0.41 +/− 0.21* cm^3; in data set [1] (Table 26, MT-3, 10 mg/kg/inj., treatment d 10-14), 0.673 +/− 0.226* cm^3. The “BWC [%] (at day)” value in data set [4] (Table 25, MT-3 model, 12.5 mg/kg/inj. d 7-9, 10 mg/kg/inj. d 10-11) was −15%; in data set [4] (Table 26, MT-3 model, 10 mg/kg/inj., treatment d 10-14), −18%. The “Toxic deaths (at day)” value in data set [4] (Table 25, MT-3 model, 12.5 mg/kg/inj. d 7-9, 10 mg/kg/inj. d 10-11, number of mice) amounted to 1; in data set [4] (Table 26, MT-3 model, 10 mg/kg/inj., treatment d 10-14, number of mice), 0.

For the origin of these results see patent publication US20150297738A1, “CONJUGATES COMPRISING HYDROXYALKYL STARCH AND A CYTOTOXIC AGENT AND PROCESS FOR THEIR PREPARATION” (Fresenius Kabi Deutschland GmbH, priority 2010, published 2015).
